For the setting “acidic group”, `CCOc1cccc(C(=O)O)c1C` yielded a pKa of 3.73.

The compound `O=C1Cc2c1ccc(O)c2Br` registered a pKa (acidic group) of 5.75.

For the compound `OC(O)=C1c2ccccc2-c2ccccc21`, the pKa (acidic group) was found to be 2.01.

Take `Cc1cc(O)n(-c2ccccc2)n1`: the pKa by setting is: (acidic group) 11.3; (basic group) 1.07.

For the compound `Cc1ccc(Cl)cc1/C(=N/CCCN(C)C)c1ccccc1`, the pKa (basic group) turned out to be 8.8.

For the compound `[O-]c1nccc2c1cnc1ccccc12`, the pKa (basic group) was determined as 11.3.

Where the note is “basic group”, `[NH3+]c1ccc(-c2ncc(-c3ccccc3)o2)cc1` had a pKa of 0.06.

`COc1ccccc1N` came in with a pKa (basic group) of 4.51.

Turning to `Cc1cccc(C(=O)O)c1Cl`, the pKa (acidic group) was 3.

In turn, `Cc1ccnc(/N=C/c2ccc([N+](=O)[O-])cc2)n1` returned a pKa (basic group) of 3.66.

`Clc1ccccn1` showed a pKa (basic group) of 0.72.

With `Cc1ccc(/C=C/C(=O)C(=O)O)cc1`, the pKa (acidic group) was 1.96.

Compound `[NH3+]CCCCC#CC#CCCC(=O)O` yielded a pKa (acidic group) of 4.15.

For the compound `CCc1cc(/N=N/c2ccc(N(C)C)cc2)ccc1C`, the pKa (basic group) was determined as 2.59.

Consider `Cc1cc(I)c(O)c(I)c1`, for which the pKa (acidic group) turned out to be 6.

In turn, `Oc1ccc2ccccc2c1` came in with a pKa (acidic group) of 9.6.

In turn, `C[NH2+]Cc1ccccn1` showed a pKa (basic group) of 2.91.

On to `O=C(O)CC1[NH2+]Nc2ccccc21` (configuration not stated), for which, where the note is “acidic group”, the pKa came to 2.9.

For the compound `Cc1csc(Cc2ccccc2)[n+]1C`, the pKa (acidic group) came to 10.8.

Take `O=[N+]([O-])c1ccc(/C=C/c2nnnn2-c2ccc([N+](=O)[O-])cc2)cc1`: the pKa (basic group) was -3.15.

The compound `Cc1cccc(=O)c(O)c1` had a pKa (acidic group) of 7.26.

For the compound `CC(=O)Nc1cccnc1`, under “basic group”, the pKa was 4.44.

With `CC1(C)[C@@H](N)[C@@H]1[NH3+]`, the pKa (basic group) was found to be 5.97.

`CN(C)c1ccc([N+](C)(C)C)cc1` displayed a pKa (basic group) of 2.64.

With `Cc1noc(C)c1C`, the pKa (basic group) was -1.

`[NH3+][C@@H](Cc1c[nH]c2ccccc12)C(=O)O` returned a pKa (acidic group) of 2.2.

For the setting “basic group”, `CN(C)/C=N/c1ccccc1[N+](=O)[O-]` returned a pKa of 5.65.

For `CCNC(C)C`, the pKa (basic group) was found to be 11.

Under “acidic group”, `Oc1[nH+]ccc2cccnc12` had a pKa of 2.64.

For `[O-]c1nc([O-])c2[nH]cnc2n1`, the pKa (basic group) was determined as 11.1.

`CCCCN(CCCC)c1ccccc1`: the pKa (basic group) was 6.41.

Compound `CCCCNC` displayed a pKa (basic group) of 10.8.

Under “basic group”, `Cn1nncc1Nc1ccccc1` displayed a pKa of 1.73.

The compound `CN1C(=O)N(CCN2CCOCC2)C(=O)C(C)(C2=CCCCC2)C1=O` (configuration not stated) showed a pKa (basic group) of 5.75.

The compound `Cc1cn2nc(-c3ccccc3)cc(C)c2n1` came in with a pKa (basic group) of 5.3.

With `c1ccc(Oc2ccncc2)cc1`, the pKa (basic group) came out at 6.16.

In turn, `COc1ccc(/C=N/O)cc1OC` returned a pKa (acidic group) of 10.8.

For the compound `CCN(CC)CC(=O)N(C)c1ccccc1C`, where the note is “basic group”, the pKa came to 8.74.

In turn, `CCOCCNc1ccc(C)cc1` returned a pKa (basic group) of 4.6.

Regarding `O=C(O)CCCP`, where the note is “acidic group”, the pKa is 4.53.

In the case of `Cc1cc(C[NH+](C)C)c(O)c(C[NH+](C)C)c1`, the pKa (acidic group) was determined as 6.45.

For `Cc1ccc2ccc3cccnc3c2n1`, the pKa (basic group) came out at 5.36.

Regarding `Cc1ccc(OC(=O)CCCCN(C)C)cc1`, the pKa (basic group) came to 9.87.

Consider `O=C(O)C[Se]c1cccc([N+](=O)[O-])c1`, for which the pKa (acidic group) came to 3.55.

For `CC(=O)c1ccc(C(=O)O)cc1`, the pKa (acidic group) came out at 3.72. This pKa and that of the compound before are within 0.2 log units of each other.

For the setting “acidic group”, `C[Si](C)(CCl)CCCC(=O)O` returned a pKa of 4.97.

Under “basic group”, `CC(C)S(=O)(=O)n1c(N)nc2ccc(/C(=C/C(N)=O)c3cccc(F)c3)cc21` displayed a pKa of 3.41.

Turning to `Cc1ccc(CNCCN)cc1`, the pKa (basic group) was determined as 9.41.

Turning to `O=C(O)c1ccc(OCc2ccccc2)cc1`, the pKa (acidic group) is 4.44.

`O=C([O-])Cc1nc2ccccc2[nH]1` returned a pKa (basic group) of 4.1.

For `Nc1ccc(-c2nc3ccccc3s2)cc1`, the pKa (basic group) was determined as 3.

Where the note is “acidic group”, `CCC1C(=O)C(CC)C1=O` (configuration not stated) showed a pKa of 3.5.

For the compound `Oc1ccc2cccnc2c1`, the pKa by setting is: (acidic group) 8.85; (basic group) 5.48.

Regarding `O=[N+]([O-])c1ccc(S(=O)(=O)NCc2ccccc2)cc1`, for the setting “acidic group”, the pKa turned out to be 10.1.

Consider `CO[C@H]1C=CC2=CCN3CC[C@H](CO)/C(=C\CO)[C@]23C1`, for which the pKa (basic group) worked out at 7.79.

Compound `CCc1cc2c(C)cc(=O)oc2cc1O` returned a pKa (acidic group) of 8.01.

`N#CC(C#N)=NNc1ccc(CCCl)cc1`: the pKa reads like this: (acidic group) 6.5; (basic group) -0.81.

The compound `Cc1cc[nH+]c([O-])n1` displayed a pKa (basic group) of 3.15.

Take `O=[N+]([O-])CSc1ccccc1`: the pKa (acidic group) came to 6.67.

`Nc1c2ccccc2[nH+]c2cc(O)ccc12` had a pKa (acidic group) of 6.63. The pKa values of the last two compounds are within 0.2 log units of each other.

Take `O=C(O)C1COCCO1` (configuration not stated): the pKa (acidic group) is 3.15.

Take `[O-]c1cnccn1`: the pKa (basic group) is 8.23.

With `Cc1ncc2nccnc2n1`, the pKa (basic group) was determined as 4.87.

The compound `C[C@H]1C[C@@]23[C@@H]4CCCN2CCC[C@H]3[C@@H](O)C[C@H]4C1=O` came in with a pKa (basic group) of 9.13.

In turn, `CCCCSCCN` gave a pKa (basic group) of 8.37.

On to `Nc1nc([S-])c2[nH]cnc2n1`, for which the pKa was 11.6 (acidic group) and 8.2 (basic group).

In turn, `CN1CCCN1C` yielded a pKa (basic group) of 6.67.

As to `Cn1cc[nH+]c1N=[N+]=[N-]`, the pKa (basic group) was 0.5.

Source of the values: the pKa sets of Baltruschat and Czodrowski (2020).
